Results on one compound are retold here after US20070155720A1, “Co-administration of dopamine-receptor binding compounds” (DarPharma, Inc., priority 2003, published 2007).

pIC50, pKi: −log10 of the molar value.

In one data set the target is D3 receptor (Rattus norvegicus, UniProt P19020). The data set is described as follows: biochemical.
Another data set has as its target T1, D1A receptor (C-6-mD1A) (Macaca mulatta, UniProt O77680).
T1 construct: expressed in transfected cells; host or cells: C-6 glioma cells
The data set is described as follows: Binding, cloned D1A receptor in C-6 cells. Also noted: species or system monkey (rhesus macaque). Conditions: monkey receptor, read-out: Cloned Receptors D1A C-6 (monkey).

Data set [1] deals with alpha2 adrenergic receptors. The data set is described as follows: Binding site screen, alpha2 adrenergic receptors. An excerpt:
(§1) […]. […] […].

The nature of data set [2]: Half-life and duration of functional activity. Format: in vivo.
For data set [3], the system named is dopamine release or reuptake. The data set is described as follows: Dopamine release and reuptake.
Excerpt: as §1

Another data set deals with MPTP-treated monkeys. The data set is described as follows: Cognitive deficits in chronic low dose MPTP-treated monkeys, delayed response task. Format: in vivo, monkey. From the text: Two adult male Macaca fascicularis monkeys (4.7 and 5.7 kg initial body weight) and 1 female Macaca nemistrina monkey (5.0 kg initial body weight) were trained to perform a delayed response task. Briefly, animals were trained and tested on delayed response while seated in a restraining chair placed inside a sound attenuating modified Wisconsin General Test Apparatus. The monkey sat behind an opaque screen that when raised, allowed access to a sliding tray that contained recessed food wells with identical sliding white Plexiglas covers that served as stimulus plaques that could be displaced by the animal to obtain rewards (e.g. raisins). Monkeys were trained to retrieve a raisin from one of the food wells after observing the experimenter bait the well. […]
Training was accomplished with a non-correction procedure, beginning with a 0 s delay and progressing to a 5 s delay. […] A response was scored a “mistake” if the monkey made its response choice to a well that was not baited with reward. […]
Compounds and/or compositions described herein are tested by dissolving in physiological saline containing 0.2% ascorbate and administering subcutaneously. Ilustratively, compounds and/or compositions described herein are used at 0.3, 0.6, and 0.9 mg/kg doses, calculated as the free base where appropriate. The order of dose administration is determined randomly. […]

Data set [4] concerns the target 40 binding sites (other than the D1 site). The data set is described as follows: Screen for activity at 40 binding sites. Conditions: 40 binding sites other than D1, all except D2 and alpha2 adrenergic; read-out: IC50 at binding sites found inactive.
Excerpt: as §1

In data set [5] the test system is acetylcholine release in striatum and frontal cortex. The data set is described as follows: Acetylcholine release by in vivo microdialysis in conscious, freely-moving rats. More on the design: species or system rat.
In data set [6] the test system is rats with scopolamine-induced deficits. The data set is described as follows: Passive avoidance in rats, scopolamine-induced amnesia. The data set is classed as in vivo, rat. The procedure:
The protocol summarized below is one of many variants of the passive avoidance procedure using scopolamine-induced amnesia (for review see Rush, Behav Neural Biol 50:255-274, 1988). This procedure is commonly used to identify drugs that may be useful in treating cognitive deficits, particularly those observed in AD. The effects of the D
Testing was conducted in standard 2-compartment rectangular passive avoidance chambers (San Diego Instruments, San Diego, Calif.) with black plexiglas sides and grid floors. The light compartment of the chambers were illuminated by a 20 W lamp located in this compartment; the dark side of the chambers will be shielded from light, except for light penetrating the opening connecting the two compartments of each chamber.
On training day, groups of 8 rats were injected with scopolamine (3.0 mg/kg, ip) or vehicle (1.0 ml/kg) 30 min prior to training. Scopolamine served as the dementing agent in this experiment. Ten min prior to training, each group of rats received a second injection of vehicle or a dose of DHX. At the end of the pretreatment interval, each rat was placed individually in the light compartment facing away from the opening between compartments. The latency for each rat to travel from the light to the dark compartment was measured up to a maximum of 300 sec; any animal not entering the dark compartment within 300 sec was discarded from the test group. Once the animal entered the dark compartment completely, a 1.0 milliampere, 3.0 sec scrambled shock was delivered to the entire grid floor. The animal was allowed to remain in the dark compartment during this 3.0 sec period or to escape to the light compartment. Each rat was then returned immediately to its home cage.
Twenty-four hr after training, each rat was tested in the same apparatus for retention of the task (to remain passively in the light compartment). […] The latency for animals to enter the dark compartment on test day (step-through latency) was recorded up to a maximum of 600 sec. Each animal was used only once in a single experiment.
A one-way analysis of variance (ANOVA) and Newman-Keuls post-hoc comparisons were used to identify significant deficits in passive avoidance responding produced by scopolamine and their reversal by DHX; a p value of less than 0.05 was used as the level of significance.

The next data set relates to adenylate cyclase. The data set is described as follows: Stimulation of adenylate cyclase in brain tissue. Conditions: rat, monkey, and human brain tissue. Format: biochemical.
Excerpt: as §1

The test system of the next data set is monkeys. Conditions: young, intact monkeys; cited from earlier work.
For the next data set, the target named is T2, D4 receptor (Rattus norvegicus, UniProt P30729).
T2 sequence (P30729 1-387): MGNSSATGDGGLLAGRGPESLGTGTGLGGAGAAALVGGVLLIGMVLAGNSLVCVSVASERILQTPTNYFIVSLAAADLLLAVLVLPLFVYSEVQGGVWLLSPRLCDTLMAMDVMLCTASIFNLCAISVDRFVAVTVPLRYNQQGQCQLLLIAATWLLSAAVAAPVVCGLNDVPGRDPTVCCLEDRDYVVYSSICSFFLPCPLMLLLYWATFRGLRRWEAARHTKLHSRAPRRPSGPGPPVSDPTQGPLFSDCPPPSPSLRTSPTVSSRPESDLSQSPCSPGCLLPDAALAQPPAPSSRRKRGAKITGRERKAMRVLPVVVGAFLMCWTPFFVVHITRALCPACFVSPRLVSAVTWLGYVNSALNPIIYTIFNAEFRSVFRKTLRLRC
The data set is described as follows: Binding, cloned D4 receptor in CHO cells. Also noted: expressed in transfected cells; host or cells: CHO cells. The following applies: read-out: Cloned Receptors D4 CHO (rat).

A short description of data set [7]: Pharmacokinetic studies in rodents and non-human primates. Format: in vivo. An excerpt: […]. […] […]

Sequence of D3 receptor (P19020 whole entry): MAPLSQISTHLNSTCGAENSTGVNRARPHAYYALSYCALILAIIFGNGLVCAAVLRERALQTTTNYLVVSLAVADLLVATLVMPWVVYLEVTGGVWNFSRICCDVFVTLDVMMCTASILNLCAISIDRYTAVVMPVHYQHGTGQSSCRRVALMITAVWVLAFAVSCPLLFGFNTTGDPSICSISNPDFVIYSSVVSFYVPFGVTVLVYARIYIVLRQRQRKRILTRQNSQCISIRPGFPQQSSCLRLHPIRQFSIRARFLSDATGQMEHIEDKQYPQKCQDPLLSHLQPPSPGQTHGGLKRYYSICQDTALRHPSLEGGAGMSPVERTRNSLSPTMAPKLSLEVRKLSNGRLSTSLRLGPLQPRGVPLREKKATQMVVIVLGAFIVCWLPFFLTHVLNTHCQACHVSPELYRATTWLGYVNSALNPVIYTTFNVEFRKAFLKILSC
T1 sequence (O77680 whole entry): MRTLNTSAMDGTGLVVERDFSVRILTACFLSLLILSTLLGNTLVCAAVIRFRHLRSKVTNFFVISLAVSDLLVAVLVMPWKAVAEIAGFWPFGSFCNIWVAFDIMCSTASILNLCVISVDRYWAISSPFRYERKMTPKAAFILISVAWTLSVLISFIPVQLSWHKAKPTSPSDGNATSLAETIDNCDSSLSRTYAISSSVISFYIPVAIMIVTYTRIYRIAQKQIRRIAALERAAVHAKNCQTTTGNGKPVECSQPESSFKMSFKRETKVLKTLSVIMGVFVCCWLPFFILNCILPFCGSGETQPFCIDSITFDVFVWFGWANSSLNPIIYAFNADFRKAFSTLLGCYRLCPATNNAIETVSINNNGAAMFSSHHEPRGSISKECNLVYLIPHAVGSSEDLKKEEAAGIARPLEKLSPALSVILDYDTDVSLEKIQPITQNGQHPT
Protocol for D1A receptor (C-6-mD1A): Cells were grown in DMEM-H medium containing 4,500 mg/l glucose, L-glutamine, 5% fetal bovine serum and 600 ng/ml G418. […] Cells were plated into 24-well plates and allowed to grow to confluence (usually 2-4 days), after which they were used for either dose-response or desensitization studies. For the binding studies, 75-cm^2 flasks of confluent cells were treated as described below. All studies (functional and receptor binding) used cells from passages 2 to 20.
Flasks of cells in the same passage were rinsed with 5 ml hypoosmotic buffer (1 mM HEPES, 2 mM EGTA, pH 7.4), and then incubated with 7 ml hypoosmotic buffer for 5 to 10 min at 4° C. Cells were then scraped off the bottom of the flask with a rubber policeman, collected into 50-ml tubes and centrifuged at 28,000×g at 4° C. for 20 min. […] Aliquots contained approximately 1 mg/ml of protein, as measured with the BCA protein assay reagent (Pierce, Rockford, Ill.). […]
For dose-response studies, data were calculated for each sample and expressed initially as pmol cAMP per mg protein per min. […] Normalized dose-response curves were analyzed by nonlinear regression with an algorithm for sigmoid curves in the curve-fitting program Prism (Graphpad Inc., San Diego, Calif.). […] For competition binding studies, the raw data (expressed in dpm) were analyzed by nonlinear regression with a sigmoid dose-response model in Prism. […]

In the case of `Cl.Oc1cc2c(cc1O)[C@@H]1c3ccccc3CN[C@H]1CC2` (relative stereo) [Compound 6a, Trans-10,11-dihydroxy-5,6,6a,7,8,12b-hexahydrobenzo[a]phenanthridine hydrochloride], the pKi was 7.74 on D3 receptor, 8.66 at D1A receptor (C-6-mD1A) and 7.89 on D4 receptor. Moreover, the pIC50 was about 6.64 in data set [1] and under 5.00 in data set [4]. In addition, in data set [2] (given subcutaneously), the Functional half-life result is on record as “about 3 hr”. The half-life in data set [2] (in vivo, iv, given intravenously, read-out: Half-life) is about 30 min. Moreover, the “Releasing dopamine or blocking its reuptake” value in data set [3] is “inactive”. Also, the “Cognitive deficits produced by chronic low dose MPTP treatment” value in the data set with MPTP-treated monkeys was “improve cognitive deficits”. Also, the Acetylcholine release entry in [5] is given as “dose-related increases”. Also, the “Shape of dose-response curve in passive avoidance” value in data set [6] is reported as “inverted U-shaped dose-response curve”. For the same compound, in data set [6] (dose of 0.3 mg/kg, scopolamine 3.0 mg/kg ip), the “Scopolamine-induced deficits in step-through latency” value is “significantly improved”. In [6] (doses of 0.1 and 1.0 mg/kg, scopolamine 3.0 mg/kg ip), the “Increase in step-through latency” value is “not statistically-significant”. The “Deficits induced by scopolamine” value in data set [6] (narrow range of doses (0.1, 0.3, and 1.0 mg/kg ip)) is “significantly improved”. Moreover, in the data set with adenylate cyclase, the “Efficacy in stimulating adenylate cyclase in brain tissue” value is listed as “full efficacy”. The Spatial working memory entry in the data set on monkeys is “produced improvements”. Further, in data set [7] (in vivo), the Clearance from plasma result was “cleared rapidly”. In data set [7] (rodents and non-human primates, following iv, sc and po administration), the Blood levels result is on record as “significant blood levels”.
